In US20260125382A1, “COMPOUNDS FOR INHIBITING OR DEGRADING CDK2 AND/OR CDK9 AND MEDICINAL USE THEREOF” (KOREA RESEARCH INSTITUTE OF CHEMICAL TECHNOLOGY, priority 2022, published 2026):

What was measured:
[1] = biological target: T1, CDK9 (Homo sapiens, UniProt P50750); test: CDK protein degradation activity (Western blotting), CDK9; assay type: cell-based; conditions: MDA-MB-231 cells, 16 hours, Western blot
T1 construct: endogenous in cells; host or cells: MDA-MB-231
In short: (§1)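 MDA-MB-231 cells were treated with compound at final concentrations of 100 nM, 1 μM and 10 μM, or DMSO vehicle, for 16 h. Lysates were resolved by SDS-PAGE and immunoblotted for CDK2, CDK9 and tubulin, with band intensities quantified densitometrically.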

[2] = biological target: T2, CDK2 (Homo sapiens, UniProt P24941); test: CDK protein degradation activity (Western blotting), CDK2; assay type: cell-based; conditions: MDA-MB-231 cells, 16 hours, Western blot
T2 construct: endogenous in cells; host or cells: MDA-MB-231
In short: as §1

T1 sequence (P50750 whole entry): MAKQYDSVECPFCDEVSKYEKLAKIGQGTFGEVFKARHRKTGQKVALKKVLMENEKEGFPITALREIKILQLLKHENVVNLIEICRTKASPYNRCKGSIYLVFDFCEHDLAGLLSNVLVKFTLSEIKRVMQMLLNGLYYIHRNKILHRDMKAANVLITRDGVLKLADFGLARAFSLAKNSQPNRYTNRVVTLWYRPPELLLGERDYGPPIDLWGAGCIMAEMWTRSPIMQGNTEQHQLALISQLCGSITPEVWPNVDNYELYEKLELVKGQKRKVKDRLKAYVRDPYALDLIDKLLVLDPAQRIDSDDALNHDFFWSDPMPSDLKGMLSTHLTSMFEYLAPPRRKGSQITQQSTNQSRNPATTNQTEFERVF

| SMILES | Enzyme degradation CDK9 (% remaining) @ 0.1 μM [1] | Enzyme degradation CDK9 (% remaining) @ 1 μM [1] | Enzyme degradation CDK9 (% remaining) @ 10 μM [1] | Enzyme degradation CDK2 (% remaining) @ 0.1 μM [2] | Enzyme degradation CDK2 (% remaining) @ 1 μM [2] | Enzyme degradation CDK2 (% remaining) @ 10 μM [2] |
| --- | --- | --- | --- | --- | --- | --- |
| O=C1CC[C@H](N2C(=O)c3ccc(NCC(=O)N4CCC(CCCN5CCN(c6ccc(Nc7ncnc8c7ncn8[C@H]7C[C@@H](NC(=O)Cc8ccccc8)C7)cc6)CC5)CC4)cc3C2=O)C(=O)N1 (racemic) [Compound 255, N-((1s,3s)-3-(6-((4-(4-(3-(1-((2-(2,6-dioxopiperidin-3-yl)-1,3-dioxoisoindolin-5-yl)glycyl)piperidin-4-yl)propyl)piperazin-1-yl)phenyl)amino)-9H-purin-9-yl)cyclobutyl)-2-phenylacetamide] | 0/0/0% | 0/0/0% | 0/0/0% | 30/30/30% | 30/30/30% | 30/30/30% |
| O=C(COc1cccc2c1C(=O)N(C1CCC(=O)NC1=O)C2=O)NCC1CCC(CN2CCN(c3ccc(Nc4ncnc5c4ncn5C4CC(NC(=O)Cc5ccccc5)C4)cc3)CC2)CC1 (stereo not drawn) [Compound 219, 2-((2-(2,6-dioxopiperidin-3-yl)-1,3-dioxoisoindolin-4-yl)oxy)-N-(((1r,4r)-4-((4-(4-((9-((1s,3s)-3-(2-phenylacetamido)cyclobutyl)-9H-purin-6-yl)amino)phenyl)piperazin-1-yl)methyl)cyclohexyl)methyl)acetamide] | 100% | 10% | 0% | 80% | 50% | 50% |
| O=C1CC[C@H](n2nnc3ccc(N4CCC(CN5CCC(CCNc6ncnc7c6ncn7C6CC(NC(=O)Cc7ccccc7)C6)CC5)CC4)cc3c2=O)C(=O)N1 (stereo partly drawn) [Compound 410, N-((1s,3s)-3-(6-((2-(1-((1-(3-(2,6-dioxopiperidin-3-yl)-4-oxo-3,4-dihydrobenzo[d][1,2,3]triazin-6-yl)piperidin-4-yl)methyl)piperidin-4-yl)ethyl)amino)-9H-purin-9-yl)cyclobutyl)-2-phenylacetamide] | 30% | 20% | 20% | 30% | 20% | 20% |
| Cc1cccc(C(=O)N[C@H]2C[C@@H](n3cnc4c(Nc5ccc(N6CCN(CCC7CCN(C(=O)C8CCN(c9ccc%10c(c9)C(=O)N([C@H]9CCC(=O)NC9=O)C%10=O)CC8)CC7)CC6)cc5)ncnc43)C2)n1 [Compound 389, N-((1s,3s)-3-(6-((4-(4-(2-(1-(1-(2-(2,6-dioxopiperidin-3-yl)-1,3-dioxoisoindolin-5-yl)piperidin-4-carbonyl)piperidin-4-yl)ethyl)piperazin-1-yl)phenyl)amino)-9H-purin-9-yl)cyclobutyl)-6-methylpicolinamide] | 0/0/0% | 0/0/0% | 0/0/0% | 40% | 30% | 30% |
| O=C1CC[C@@H](c2cccc(OCC(=O)N3CCC4(CC3)CC(N3CCN(c5ccc(Nc6ncnc7c6ncn7C6CC(NC(=O)Cc7ccccc7)C6)cc5)CC3)C4)c2)C(=O)N1 (stereo partly drawn) [Compound 226, N-((1s,3s)-3-(6-((4-(4-(7-(2-(3-(2,6-dioxopiperidin-3-yl)phenoxy)acetyl)-7-azaspiro[3.5]nonan-2-yl)piperazin-1-yl)phenyl)amino)-9H-purin-9-yl)cyclobutyl)-2-phenylacetamide] | 0/0/0% | 0/0/0% | 0/0/0% | 40% | 30% | 40% |
